In patent US20210393645A1, “TREATMENT FOR PROGRESSIVE MULTIPLE SCLEROSIS” (UTI LIMITED PARTNERSHIP, priority 2016, published 2021):
Where a name gives a salt, the structure may show the parent alone.

Experiments:
[1] = system: human neurons; assay: Mitochondrial damage to neurons induced by rotenone; type: cell-based; conditions: rotenone 10 μM, drug 10 μM
Description: Human neurons were isolated from brain tissues of therapeutically aborted 15-20 week old fetuses, in accordance with ethics approval of the University of Calgary ethics committee, after written informed consent of the pregnant donors. Neurons were isolated as previously described (Vecil et al., 2000) brain specimens were washed in phosphate buffered saline (PBS) to remove blood, followed by removal of meninges. […] Thereafter, the digestion was stopped by addition of 4 ml fetal calf serum (FCS). The solution was filtered through a 132 μm filter and centrifuged (three times, 1,200 rpm, 10 min). Cells were cultured in feeding medium of minimal essential medium (MEM) supplemented with 10% fetal bovine serum (FBS), 1 μM sodium pyruvate, 10 μM glutamine, 1× non-essential amino acids, 0.1% dextrose and 1% penicillin/streptomycin (all culture supplements from Invitrogen, Burlington, Canada). […] For experiments, the neuron-enriched cultures were retrypsinized and cells were plated in poly-L-ornithine pre-coated 96-well plates at a density of 100,000 cells/well in 100 μl of the complete medium supplemented with cytosine arabinoside. […] All conditions were performed in quadruplicates. A day later cells were fixed using 4% paraformaldehyde (PFA) and stored in PBS in 4° C.
The iron stock solution was prepared using 27.8 mg iron(II) sulfate heptahydrate (FeSO4) (Sigma-Aldrich, Oakville, Canada), 10 μl of 17.8M sulfuric acid and 10 ml deionized distilled water. After filtering with a 0.2 μm filter, FeSO4 was added to cells in a final concentration of 25-50 μM in a volume of 50 μl medium to the cells. Rotenone was dissolved in dimethyl sulfoxide (DMSO) and used in a final concentration of 10 μM.

[2] = system: T-cells; assay: Proliferation of T-lymphocytes (3H-thymidine) in anti-CD3/anti-CD28 activated splenocytes; type: cell-based, mouse; conditions: concentration response
[3] = system: T-cells; assay: as above; type: cell-based, mouse; conditions: Mus musculus, T-cell, 72 h; drug 10 μM, vs activated splenocytes; read-out: mean reduction of 3H-thymidine incorporation (T-cell proliferation)
Description: A previously published protocol was used for isolating and activating T-cells (Keough et al., Nature Comm 7:11312, 2016). Spleens from female C57B16 mice were harvested and after mechanical dissociation the cell suspension was passed through a 70 μm cell strainer and separated by Ficoll gradient (1800 RPM, 30 min). Splenocytes were plated (2.5×10^5 cells in 100 μl/well) in anti-CD3 antibody coated 96-well plates (1,000 ng m1^−1 plate-bound anti-CD3 and 1,000 ng m1^−1 anti-CD28 suspended in media) to activate T-cells. Directly before plating, wells were treated with respective drugs in a final concentration of 10 μM. Cells were cultured in RPMI 1640 medium, supplemented with 10% FBS, 1 μM sodium pyruvate, 2 mM L-alanyl-L-glutamine, 1% penicillin/streptomycin, 1% HEPES and 0.05 mM 2-mercaptoethanol (all supplements were from Invitrogen). After 48 h, ^3H-thymidine was added in a concentration of 1 μCi per well, and cells were harvested after 24 h on filter mats. Mats were then evaluated for radioactivity (counts per minute) using a liquid scintillation counter.

[4] = Hydroxyl radical antioxidant capacity (HORAC) assay; type: biochemical; conditions: vs 12.5 μM gallic acid (=1), 60 min
Description: In this assay, hydroxyl radicals generated by a Co(II)-mediated Fenton-like reaction oxidize fluorescein causing loss of fluorescence (Ou et al., J Argricultural Food Chemistry 50:2772-2777, 2002). The presence of an anti-oxidant reduces the loss of fluorescence and this can be monitored every 5 min over a period of 60 min with a Spectra Max Gemini XS plate reader (Molecular Devices, Sunnyvale, Calif., USA) and the software SoftMax Pro version 5. For monitoring fluorescence, we used an excitation wavelength of λ=485 nm and an emission wavelength of λ=520 nm.
The biochemical cell free hydroxyl radical antioxidant capacity (HORAC) assay investigates the prevention of hydroxyl radical mediated oxidation of to fluorescein in comparison to the strong anti-oxidant gallic acid. The generation of hydroxyl radicals by a cobalt-driven Fenton-like reaction oxidizes fluorescein with progressive loss of fluorescence. The presence of an anti-oxidant reduces the loss of fluorescence over time.
We compared the area under the curve of test compounds to that elicited by gallic acid to obtain the gallic acid equivalent (GAE).

[5] = system: T-lymphocytes; assay: Cell cycle analysis of activated splenocytes by flow cytometry (propidium iodide); type: cell-based, mouse
Description: Two days after activation and drug treatment splenocytes were harvested, washed with PBS followed by resuspension in PBS with 2% FBS. Cell cycle analysis was performed taking advantage of propidium iodide staining (50 μg/ml) using an established protocol (Besson and Yong, 2000). Cells were washed in cold PBS and resuspended in PI/Triton X-100 staining solution (10 ml 0.1% (v/v) Triton X-100 in PBS with 2 mg DNAse-free RNAse A and 0.4 ml of 500 μg/ml PI), followed by incubation at 4° C. for 30 min. Stained cells were analyzed on a FACSCalibur™ with the software CellQuest™ (BD Biosciences). Cell cycle analysis was conducted using the software ModFit LT, version 3.3 (Verity Software House Inc.).
Cells were identified by gating into the lymphocyte population, followed by single cell gating to exclude doublets and aggregates. This was followed by identification of the G0/G1 population and processing with the software ModFit LT, version 3.3 (Verity Software House Inc.) to calculate the percentage of cells in different cell cycles.

[6] = system: B-cells; assay: Proliferation of activated B-cells (3H-thymidine); type: cell-based, human; conditions: BCR/anti-CD40L/IL-4 activation
Description: Venous blood from healthy volunteers was obtained and peripheral blood mononuclear cells (PBMCs) were isolated by Ficoll gradient centrifugation (1800 RPM, 30 min). From PBMCs, B-cells were isolated by positive selection with CD19 directed microbeads (Stemcell Technologies). Purity was assessed by FACS after staining for CD19 (Stemcell Technologies). Cells were plated in a concentration of 2.5×10^5 cells/well in X-VIVO™ medium (Lonza) supplemented with 1% penicillin/streptomycin and 1% Glutamax and treated with drugs for 1 h. […] Medium as well as respective drugs were re-added followed by application of ^3H-thymidine in a concentration of 1 μCi per well to investigate proliferation.

[7] = system: human neurons; assay: Live cell imaging of propidium iodide positive neurons challenged with FeSO4; type: cell-based; conditions: FeSO4 50 μM, pre-treatment 1 h
Description: Neurons were prepared as described above. Directly after the addition of FeSO4 to healthy neurons, the live cell-permeant Hoechst 33342 (1:2 diluted in AIM-V medium, nuclear blue; ThermoFisher Scientific, Grand Island, NY, USA) and the live cell-impermeable propinium iodide (PI, 1:20 diluted in AIM-V medium) were added in a volume of 20 μI (Sigma-Aldrich). In compromised cells, PI could now diffuse across the plasma membrane. Live cell imaging was performed using the automated ImageXpress® imaging system under controlled environmental conditions (37° C. and 5% CO2). Images were taken from 9 sites per well at baseline and then every 30 min for 12h. After export with MetaXpress®, videos were edited with ImageJ (NIH) in a uniform manner. Nuclei were pseudo colored in cyan, PI-positive cells in red.
Live cell imaging over 12 h supported the neuroprotective effects of drugs. We selected indapamide and desipramine for live imaging studies.

CN(C)CCCN1c2ccccc2CCc2ccc(Cl)cc21 [CLOMIPRAMINE HYDROCHLORIDE]
neurotoxicity by rotenone (mitochondrial damage) [1]: trended towards a protective activity
concentration from which T-lymphocyte proliferation is significantly reduced [2]: 5 µM
inhibition at 10 µM [3]: 68.2%
mean HORAC-GAE (gallic acid equivalents) [4]: 2.1
concentration from which cell cycle arrest is seen (more cells in G1, less in S-phase) [5]: 2 µM
concentration from which proliferation of activated B-cells is reduced [6]: 2 µM
number of PI-positive neurons in response to FeSO4 over 12 h [7]: attenuated
